Counter-ions that a name gives are not always drawn.
Assays:
[1] = biological target: AD brain-derived tau seeds (Homo sapiens, UniProt P10636, C639S); assay: biochemical; assay type: biochemical; conditions: for inhibition at 100 µM: read-out: percent inhibition (vehicle AUC 100% minus percent AUC of compound); for percent inhibition (vehicle AUC 100% minus percent AUC of compound): 100 µM
[2] = system: hyperphosphorylated tau; conditions: mouse, in vivo; cited from earlier work
[3] = system: 2N4R; conditions: cited from earlier work
[4] = biological target: tau (Homo sapiens, UniProt P10636, C639S); assay: Transmission electron microscopy of Tau-SAA end products; assay type: biochemical; conditions: SAA end products (total fraction) of 100 µM reactions
tau, sequence (P10636 1-352 isoform P10636-2 C233S): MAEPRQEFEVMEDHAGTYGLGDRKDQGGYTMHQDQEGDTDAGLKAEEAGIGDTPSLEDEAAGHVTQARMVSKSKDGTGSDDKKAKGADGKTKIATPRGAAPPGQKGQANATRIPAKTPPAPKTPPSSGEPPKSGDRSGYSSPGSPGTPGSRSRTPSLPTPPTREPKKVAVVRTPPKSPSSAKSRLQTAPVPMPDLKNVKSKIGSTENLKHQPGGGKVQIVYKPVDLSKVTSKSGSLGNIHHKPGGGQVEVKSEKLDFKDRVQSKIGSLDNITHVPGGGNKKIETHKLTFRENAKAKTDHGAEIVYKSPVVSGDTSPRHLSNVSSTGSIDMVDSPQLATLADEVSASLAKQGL

[5] = patients receiving the drug; cited from earlier work
[6] = system: tau peptides; conditions: cited from earlier work
[7] = system: tau oligomers; conditions: mouse models; cited from earlier work
[8] = Phase III; cited from earlier work

AD brain-derived tau seeds, sequence (P10636 1-352 isoform P10636-2 C233S): as above

Compound: O=c1cc(-c2ccccc2)oc2cc(O)c(O)c(O)c12 [baicalein]
- inhibition at 100 µM [1]: > 95%

Compound: CC(=O)c1c(O)c(C)c(O)c2c1OC1=CC(=O)C(C(C)=O)C(=O)C12C (stereo not drawn) [usnic acid]
- inhibition at 100 µM [1]: 21.5%

Compound: O=S(=O)(O)c1cc(S(=O)(=O)O)c2c(/N=N/c3ccccc3)c(O)ccc2c1 [Orange-G]
- inhibition at 100 µM [1]: 39%

Compound: Brc1cccc(-c2cc(-c3ccc4c(c3)OCO4)[nH]n2)c1 [anle138b]
- hyperphosphorylated tau burden and survival [2]: reduces hyperphosphorylated tau burden and prolongs survival
- inhibition of spontaneous 2N4R aggregate formation [3]: inhibits the in vitro formation of spontaneous 2N4R aggregates
- inhibition at 100 µM [1]: -25.9%

Compound: Nc1ccc2nc3ccc(N)cc3[s+]c2c1 [Thionin, thionin]
- maximum thioflavin fluorescence (ThT Max) [1]: approaching the baseline
- percent inhibition (vehicle AUC 100% minus percent AUC of compound) [1]: over 99%

Compound: CCN(CC)CCNC(=O)c1c(C)[nH]c(/C=C2\C(=O)Nc3ccc(F)cc32)c1C [Sunitinib]
- inhibition at 100 µM [1]: 98.6%
- aggregates seen by TEM [4]: widespread amyloid-like aggregates

Compound: COc1ccc2c(c1)c(CC(=O)O)c(C)n2C(=O)c1ccc(Cl)cc1 [Indomethacin]
- aggregates seen by TEM [4]: widespread amyloid-like aggregates

Compound: COc1cc(/C=C/C(=O)CC(=O)/C=C/c2ccc(O)c(OC)c2)ccc1O [curcumin]
- cognitive outcome [5]: improvements in attention, long-term retrieval, and visual memory
- tau and Aβ burden by PET ligand binding [5]: decreased tau and Aβ burden

Compound: C=CCc1ccc(O)c(-c2ccc(O)c(CC=C)c2)c1 [honokiol]
- inhibition at 100 µM [1]: 94%

Compound: Oc1cc(O)c2c(c1)O[C@H](c1ccc(O)c(O)c1)[C@@H](O)C2 [(+)-catechin]
- percent inhibition (vehicle AUC 100% minus percent AUC of compound) [1]: 89%

Compound: CCN(CC)CCCC(C)Nc1c2ccc(Cl)cc2nc2ccc(OC)cc12 (stereo not drawn) [quinacrine hydrochloride]
- maximum thioflavin fluorescence (ThT Max) [1]: reduced ThT Max across all dilutions
- time to threshold (TTT) [1]: only delay TTT at higher dilutions

Compound: O=c1c(O)c(-c2cc(O)c(O)c(O)c2)oc2cc(O)cc(O)c12 [myricetin]
- inhibition at 100 µM [1]: > 95%

Compound: CN(C)c1ccc2nc3ccc(=[N+](C)C)cc-3sc2c1 [Methylene Blue]
- inhibition at 100 µM [1]: > 99%

Compound: CNc1ccc2nc3ccc(N)cc3[s+]c2c1 [azure C]
- inhibition at 100 µM [1]: > 95%

Compound: CN(C)c1ccc2nc3ccc(N)cc3[s+]c2c1.[Cl-] [Azure A, azure A]
- maximum thioflavin fluorescence (ThT Max) [1]: approaching the baseline
- percent inhibition (vehicle AUC 100% minus percent AUC of compound) [1]: > 95%

Compound: CC[C@@]1(O)C(=O)OCc2c1cc1n(c2=O)Cc2cc3c(CN(C)C)c(O)ccc3nc2-1 [topotecan]
- inhibition at 100 µM [1]: 92%
- inhibition of fibrillization of tau peptides [6]: only mildly inhibited

Compound: CNc1ccc2nc3ccc(=[N+](C)C)cc-3sc2c1.[Cl-] [azure B]
- percent inhibition (vehicle AUC 100% minus percent AUC of compound) [1]: > 95%

Compound: COc1cccc2c1C(=O)c1c(O)c3c(c(O)c1C2=O)C[C@@](O)(C(=O)CO)C[C@@H]3O[C@H]1C[C@H](N)[C@@H](O)[C@H](C)O1 [Epirubicin]
- IC50 [1]: 6.6 µM
- inhibition at 100 µM [1]: > 99%

Compound: O=C(c1cc(O)c(O)c(O)c1)c1ccc(O)c(O)c1O [Exifone]
- IC50 [1]: 11.2 µM
- inhibition at 100 µM [1]: > 95%

Compound: O=C(/C=C/c1ccc(O)c(O)c1)O[C@H](Cc1ccc(O)c(O)c1)C(=O)O [rosmarinic acid]
- inhibition at 100 µM [1]: > 95%

Compound: CO[C@H]1/C=C/O[C@@]2(C)Oc3c(C)c(O)c4c(O)c(c(/C=N/N5CCN(C)CC5)c(O)c4c3C2=O)NC(=O)/C(C)=C\C=C\[C@H](C)[C@H](O)[C@@H](C)[C@@H](O)[C@@H](C)[C@H](OC(C)=O)[C@@H]1C [Rifampin]
- spread of tau oligomers and cognitive function [7]: limit the spread of tau oligomers and improve cognitive function
- aggregates seen by TEM [4]: devoid of fibrillar amyloid structures

Compound: CN(C)c1ccc2c(c1)Sc1cc(N(C)C)ccc1N2.CS(=O)(=O)O.CS(=O)(=O)O [LMTX]
- primary efficacy outcomes [8]: did not reach primary efficacy outcomes

Compound: Cc1ccc(C(=O)c2cc(O)c(O)c([N+](=O)[O-])c2)cc1 [tolcapone]
- inhibition at 100 µM [1]: 78%

Compound: Nc1c(/N=N/c2ccc(-c3ccc(/N=N/c4cc(S(=O)(=O)O)c5ccccc5c4N)cc3)cc2)cc(S(=O)(=O)O)c2ccccc12 [Congo Red, Congo red]
- maximum thioflavin fluorescence (ThT Max) [1]: approaching the baseline
- inhibition at 100 µM [1]: > 95%

From article PMC12482674 (Alzheimer's Research & Therapy, 2025)
